In ChEMBL document CHEMBL1649168, “Susceptibility of human immunodeficiency virus type 1 to the maturation inhibitor bevirimat is modulated by baseline polymorphisms in Gag spacer peptide 1” (Antimicrob Agents Chemother, 2009):

Experiments:
[1] = test system: Human immunodeficiency virus 1; test: Antiviral activity against HIV1 PA114 harboring SP1 mutant gene relative to wild type; assay type: functional
[2] = test system: Human immunodeficiency virus 1; test: Antiviral activity against HIV1 NL4.3 harboring SP1 L231M mutant gene relative to wild type; assay type: functional
[3] = test system: Human immunodeficiency virus 1; test: Antiviral activity against HIV1 PA107 harboring SP1 mutant gene relative to wild type; assay type: functional
[4] = test system: Human immunodeficiency virus 1; test: Antiviral activity against HIV1 PA111 harboring SP1 mutant gene relative to wild type; assay type: functional
[5] = test system: Human immunodeficiency virus 1; test: Antiviral activity against HIV1 NL4.3 harboring SP1 T8A mutant gene relative to wild type; assay type: functional
[6] = test system: Human immunodeficiency virus 1; test: Antiviral activity against HIV1 PA119 harboring SP1 mutant gene relative to wild type; assay type: functional
[7] = test system: Human immunodeficiency virus 1; test: Antiviral activity against HIV1 PA109 harboring SP1 mutant gene relative to wild type; assay type: functional
[8] = test system: Human immunodeficiency virus 1; test: Antiviral activity against HIV1 PA103 harboring SP1 mutant gene relative to wild type; assay type: functional
[9] = test system: Human immunodeficiency virus 1; test: Antiviral activity against HIV1 NL4.3 harboring SP1 mutant gene relative to wild type; assay type: functional
[10] = test system: Human immunodeficiency virus 1; test: Antiviral activity against HIV1 clinical isolates; assay type: functional, organism-based
[11] = test system: Human immunodeficiency virus 1; test: Antiviral activity against HIV1 NL4.3 harboring SP1 A1V mutant gene relative to wild type; assay type: functional
[12] = test system: Human immunodeficiency virus 1; test: Antiviral activity against HIV1 HXB2 harboring SP1 Q6H/T8N mutant gene relative to wild type; assay type: functional
[13] = test system: Human immunodeficiency virus 1; test: Antiviral activity against HIV1 PA108 harboring SP1 mutant gene relative to wild type; assay type: functional
[14] = test system: Human immunodeficiency virus 1; test: Antiviral activity against HIV1 PA106 harboring SP1 mutant gene relative to wild type; assay type: functional
[15] = test system: Human immunodeficiency virus 1; test: Antiviral activity against HIV1 NL4.3 harboring SP1 T8delta mutant gene relative to wild type; assay type: functional
[16] = test system: Human immunodeficiency virus 1; test: Antiviral activity against HIV1 NL4.3 harboring SP1 V7A mutant gene relative to wild type; assay type: functional
[17] = test system: Human immunodeficiency virus 1; test: Antiviral activity against HIV1 PA100 harboring SP1 mutant gene relative to wild type; assay type: functional
[18] = test system: Human immunodeficiency virus 1; test: Antiviral activity against HIV1 HXB2 harboring SP1 V7A/T8N mutant gene relative to wild type; assay type: functional
[19] = test system: Human immunodeficiency virus 1; test: Antiviral activity against HIV1 HXB2 harboring SP1 mutant gene relative to wild type; assay type: functional
[20] = test system: Human immunodeficiency virus 1; test: Antiviral activity against HIV1 PA110 harboring SP1 mutant gene relative to wild type; assay type: functional
[21] = test system: Human immunodeficiency virus 1; test: Antiviral activity against HIV1 HXB2 harboring SP1 Q6H mutant gene relative to wild type; assay type: functional
[22] = test system: Human immunodeficiency virus 1; test: Antiviral activity against HIV1 HXB2 harboring SP1 T8N mutant gene relative to wild type; assay type: functional
[23] = test system: Human immunodeficiency virus 1; test: Antiviral activity against HIV1 HXB2 harboring SP1 V7A/T8delta mutant gene relative to wild type; assay type: functional
[24] = test system: Human immunodeficiency virus 1; test: Antiviral activity against HIV1 HXB2 harboring SP1 Q6H /V7A/T8delta mutant gene relative to wild type; assay type: functional
[25] = test system: Human immunodeficiency virus 1; test: Antiviral activity against HIV1 HXB2 harboring SP1 Q6H /V7A/T8N mutant gene relative to wild type; assay type: functional
[26] = test system: Human immunodeficiency virus 1; test: Antiviral activity against HIV1 NL4.3 harboring SP1 Q6A mutant gene relative to wild type; assay type: functional
[27] = test system: Human immunodeficiency virus 1; test: Antiviral activity against HIV1 PA117 harboring SP1 mutant gene relative to wild type; assay type: functional
[28] = test system: Human immunodeficiency virus 1; test: Antiviral activity against HIV1 HXB2 harboring SP1 Q6H/V7A mutant gene relative to wild type; assay type: functional
[29] = test system: Human immunodeficiency virus 1; test: Antiviral activity against HIV1 PA105 harboring SP1 mutant gene relative to wild type; assay type: functional
[30] = test system: Human immunodeficiency virus 1; test: Antiviral activity against HIV1 PA102 harboring SP1 mutant gene relative to wild type; assay type: functional
[31] = test system: Human immunodeficiency virus 1; test: Antiviral activity against HIV1 PA116 harboring SP1 mutant gene relative to wild type; assay type: functional
[32] = test system: Human immunodeficiency virus 1; test: Antiviral activity against HIV1 PA104 harboring SP1 mutant gene relative to wild type; assay type: functional
[33] = test system: Human immunodeficiency virus 1; test: Antiviral activity against HIV1 NL4.3 harboring SP1 Q6H mutant gene relative to wild type; assay type: functional
[34] = test system: Human immunodeficiency virus 1; test: Antiviral activity against HIV1 HXB2 harboring SP1 Q6H/T8delta mutant gene relative to wild type; assay type: functional
[35] = test system: Human immunodeficiency virus 1; test: Antiviral activity against HIV1 PA112 harboring SP1 mutant gene relative to wild type; assay type: functional
[36] = test system: Human immunodeficiency virus 1; test: Antiviral activity against HIV1 HXB2 harboring SP1 V7A mutant gene relative to wild type; assay type: functional
[37] = test system: Human immunodeficiency virus 1; test: Antiviral activity against HIV1 PA115 harboring SP1 mutant gene relative to wild type; assay type: functional
[38] = test system: Human immunodeficiency virus 1; test: Antiviral activity against HIV1 HXB2 harboring SP1 V7M mutant gene relative to wild type; assay type: functional
[39] = test system: Human immunodeficiency virus 1; test: Antiviral activity against HIV1 NL4.3 harboring SP1 V7M mutant gene relative to wild type; assay type: functional
[40] = test system: Human immunodeficiency virus 1; test: Antiviral activity against HIV1 NL4.3 harboring SP1 V7delta mutant gene relative to wild type; assay type: functional
[41] = test system: Human immunodeficiency virus 1; test: Antiviral activity against HIV1 PA101 harboring SP1 mutant gene relative to wild type; assay type: functional
[42] = test system: Human immunodeficiency virus 1; test: Antiviral activity against HIV1 PA113 harboring SP1 mutant gene relative to wild type; assay type: functional
[43] = test system: Human immunodeficiency virus 1; test: Antiviral activity against HIV1 HXB2 harboring SP1 T8delta mutant gene relative to wild type; assay type: functional
[44] = test system: Human immunodeficiency virus 1; test: Antiviral activity against HIV1 PA118 harboring SP1 mutant gene relative to wild type; assay type: functional

Question: What does the source list for `C=C(C)[C@@H]1CC[C@]2(C(=O)O)CC[C@]3(C)[C@H](CC[C@@H]4[C@@]5(C)CC[C@H](OC(=O)CC(C)(C)C(=O)O)C(C)(C)[C@@H]5CC[C@]43C)[C@@H]12` [BEVIRIMAT]?
Answer: fold change (FC) [1]: >106.1; fold change (FC) [2]: 37.6; fold change (FC) [3]: 9.8; fold change (FC) [4]: >119.5; fold change (FC) [5]: 1.2; fold change (FC) [6]: >106.4; fold change (FC) [7]: >125.4; fold change (FC) [8]: >83.2; fold change (FC) [9]: 1.1; IC50 [10]: 10 nM; fold change (FC) [11]: >77.5; fold change (FC) [12]: >122.5; fold change (FC) [13]: >116.6; fold change (FC) [14]: >119.5; fold change (FC) [15]: 10.9; fold change (FC) [16]: 45.8; fold change (FC) [17]: >125.4; fold change (FC) [18]: >157.2; fold change (FC) [19]: 1.7; fold change (FC) [20]: 1.5; fold change (FC) [21]: 2.3; fold change (FC) [22]: 52; fold change (FC) [23]: >130.6; fold change (FC) [24]: >144.3; fold change (FC) [25]: >132.3; fold change (FC) [26]: 0.9; fold change (FC) [27]: 1.9; fold change (FC) [28]: >115.1; fold change (FC) [29]: >125.4; fold change (FC) [30]: 5.6; fold change (FC) [31]: 4.5; fold change (FC) [32]: 9.3; fold change (FC) [33]: 1.9; fold change (FC) [34]: >111; fold change (FC) [35]: 1.9; fold change (FC) [36]: >151.4; fold change (FC) [37]: 0.9; fold change (FC) [38]: >113; fold change (FC) [39]: 25.3; fold change (FC) [40]: 65.5; fold change (FC) [41]: >76.1; fold change (FC) [42]: 2.3; fold change (FC) [43]: 52.2; fold change (FC) [44]: >113.7
